As usually defined, the solubility is the dissolved amount per volume that the medium holds. Higher therefore signals much dissolved substance. What is called logD is lipophilicity at a set pH, counting ionised and neutral species. A high value points to a more lipophilic compound. As a reminder, the inhibition is the change of the read-out against control, counted positive when it falls. In general, fraction unbound refers to free concentration divided by total concentration. The low end stands for little free substance, the high end for much free substance. The term microsomal CLint denotes a measure of how fast metabolising enzymes remove a compound, apart from limits set by blood flow. A higher microsomal CLint goes with faster metabolism. As a reminder, the Papp A→B is how fast a substance crosses the layer from the apical side. What is called pKa is the negative logarithm of the acid dissociation constant. Low values mean a stronger acid or weaker base, high ones a weaker acid or stronger base.

Series [1] can be described thus: Solubility of compound in DMSO.
Series [2] can be described thus: Distribution coefficient, log D of compound at pH 7.4. The note with it: octanol/water.
The target in the next series is hERG (KCNH2) (Homo sapiens, UniProt Q12809). The series is described as follows: in vitro.
Chain of hERG (KCNH2) (Q12809 whole entry): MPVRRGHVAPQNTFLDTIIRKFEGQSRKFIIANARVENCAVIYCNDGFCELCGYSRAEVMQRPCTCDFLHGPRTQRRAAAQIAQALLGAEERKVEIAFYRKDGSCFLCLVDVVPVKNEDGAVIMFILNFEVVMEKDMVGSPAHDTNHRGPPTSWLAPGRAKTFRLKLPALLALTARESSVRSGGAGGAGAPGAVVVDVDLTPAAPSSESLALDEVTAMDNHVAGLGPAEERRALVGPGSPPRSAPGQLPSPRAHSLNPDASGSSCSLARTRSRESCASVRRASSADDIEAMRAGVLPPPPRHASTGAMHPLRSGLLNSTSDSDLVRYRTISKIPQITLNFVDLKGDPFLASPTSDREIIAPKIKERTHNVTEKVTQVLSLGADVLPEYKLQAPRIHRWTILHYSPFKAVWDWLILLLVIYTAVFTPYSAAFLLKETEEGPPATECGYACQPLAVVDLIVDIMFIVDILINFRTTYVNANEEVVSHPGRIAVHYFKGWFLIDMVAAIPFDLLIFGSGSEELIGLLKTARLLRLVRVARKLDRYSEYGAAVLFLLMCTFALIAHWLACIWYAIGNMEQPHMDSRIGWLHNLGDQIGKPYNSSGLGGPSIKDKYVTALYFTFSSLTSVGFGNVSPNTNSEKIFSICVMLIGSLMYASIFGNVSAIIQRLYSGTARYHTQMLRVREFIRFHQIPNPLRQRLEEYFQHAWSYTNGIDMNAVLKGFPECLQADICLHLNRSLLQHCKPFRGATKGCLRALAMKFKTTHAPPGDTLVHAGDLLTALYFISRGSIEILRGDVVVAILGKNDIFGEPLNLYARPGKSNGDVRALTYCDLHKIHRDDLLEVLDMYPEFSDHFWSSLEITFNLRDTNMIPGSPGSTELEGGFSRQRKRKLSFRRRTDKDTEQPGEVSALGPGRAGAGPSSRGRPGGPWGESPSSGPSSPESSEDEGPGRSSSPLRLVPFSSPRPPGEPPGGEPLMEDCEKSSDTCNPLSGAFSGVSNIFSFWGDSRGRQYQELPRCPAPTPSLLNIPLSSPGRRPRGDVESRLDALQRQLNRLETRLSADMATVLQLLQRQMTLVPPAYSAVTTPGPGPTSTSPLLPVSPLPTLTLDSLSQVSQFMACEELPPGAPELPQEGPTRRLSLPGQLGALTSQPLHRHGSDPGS
Series [3] is described as follows: Fraction unbound in human plasma.
Series [4] can be described thus: Intrinsic clearance in human liver microsomes. In general terms: Liver microsomes are a subcellular fraction often used to study metabolism.
Series [5] in a line: Apparent permeability of the compound across apical side to basolateral side in human Caco2 cells. To be noted: Caco-2. On the technique in general: Caco-2 cells form a polarised layer with tight junctions and transporters.
Series [6] is described as follows: Dissociation constant, pKa of the compound by UV absorbance method. It is filed as physicochemical.
A short description of series [7]: Dissociation constant, pKa of the compound by potentiometric titretion method.

In brackets after ≈: the same amount, converted by molar mass. A value given as a limit tells only on which side of the number the result lay.

Description for hERG (KCNH2): Inhibition of human ERG at 11 uM by single shot IonWork assay relative to control

`O=S1(=O)N=C(NCc2ccccc2)c2ccccc21` had a solubility in series [1] of 89 µM (≈ 24.2 µg/mL). In addition, in series [2], the logD was found to be 1.9. Further, the inhibition at 11 µM against hERG (KCNH2) turned out to be 2.8%. The same molecule gave a fraction unbound in series [3] of 0.2. The same molecule returned a microsomal CLint in series [4] (liver microsomes) of less than 3 µL/min/mg.

As for `CCN1C(=O)c2ccccc2S1(=N)=O` (stereo not drawn), in series [5], the Papp A→B is 920 nm/s. In addition, the concentration in solution in series [1] (solubility) was 512 µM (≈ 108 µg/mL). In series [2], this molecule gave a logD of 0.7. In addition, at hERG (KCNH2), the inhibition at 11 µM is -4.7%. Also, the fraction unbound in series [3] is 0.83. The same molecule gave a microsomal CLint in series [4] (liver microsomes) of less than 3 µL/min/mg. Further, in series [6], the pKa was 8.9.

With `CCN=S1(=O)NC(=O)c2ccccc21` (stereo not drawn), the Papp A→B in series [5] is 268 nm/s. The amount in solution in series [1] (solubility) came to 947 µM (≈ 199 µg/mL). The molecule further gave a logD in series [2] of 0.1. Also, the inhibition at 11 µM against hERG (KCNH2) was 1.3%. For the same molecule, in series [3], the fraction unbound was found to be 0.41. In addition, the microsomal CLint in series [4] (liver microsomes) is less than 3 µL/min/mg. Further, the pKa in series [6] was 6.9.

For `NC1=NS(=O)(=O)c2ccccc21`, the Papp A→B in series [5] came to 73.9 nm/s. In series [1], this molecule yielded a solubility of 798 µM (≈ 145 µg/mL). In series [2], this molecule came in with a logD of 0.2. This molecule yielded a fraction unbound in series [3] of 0.48. The same molecule displayed a microsomal CLint in series [4] (liver microsomes) of less than 3 µL/min/mg. The same molecule displayed a pKa in series [6] of 11.4.

On to `O=C1N=S(=O)(Nc2ccccc2)c2ccccc21` (stereo not drawn), for which, in series [5], the Papp A→B was found to be 65.7 nm/s. In addition, the concentration in solution in series [1] (solubility) was 958 µM (≈ 247 µg/mL). In series [2], this molecule registered a logD of -1.1. For the same molecule, on hERG (KCNH2), the inhibition at 11 µM is 5.2%. In series [3], this molecule yielded a fraction unbound of 0.088. Moreover, the intrinsic clearance (microsomal CLint) in series [4] (liver microsomes) is less than 3 µL/min/mg. The same molecule yielded a pKa in series [6] of 4.1.

On to `N=S1(=O)c2ccccc2C(=O)N1Cc1ccccc1` (stereo not drawn), for which the Papp A→B in series [5] stood at 847 nm/s. Further, the concentration in solution in series [1] (solubility) came to 946 µM (≈ 258 µg/mL). The molecule also returned a logD in series [2] of 1.8. Also, the inhibition at 11 µM on hERG (KCNH2) was -7.4%. The same molecule showed a microsomal CLint in series [4] (liver microsomes) of 19.2 µL/min/mg. The same molecule gave a pKa in series [6] of 8.7.

Turning to `NS1(=O)=NC(=O)c2ccccc21` (stereo not drawn), in series [3], the fraction unbound turned out to be 0.4. The same molecule returned a microsomal CLint in series [4] (liver microsomes) of less than 3 µL/min/mg. This molecule also gave a pKa in series [6] of 5.7.

Regarding `CCNC1=NS(=O)(=O)c2ccccc21`, the Papp A→B in series [5] was 293 nm/s. This molecule also had a solubility in series [1] of 971 µM (≈ 204 µg/mL). In series [2], the logD came to 0.7. At hERG (KCNH2), the inhibition at 11 µM was determined as 18.4%. Besides, in series [3], the fraction unbound stood at 0.56. Further, the microsomal CLint in series [4] (liver microsomes) is less than 3 µL/min/mg. Also, the pKa in series [6] is 11.7.

Regarding `CCN1C(=O)c2ccccc2S1(=O)=O`, in series [5], the apical-to-basolateral permeability (Papp A→B) is 1250 nm/s. The same molecule registered a solubility in series [1] of less than 13 µM. In addition, the inhibition at 11 µM at hERG (KCNH2) was found to be 3.6%.

Take `O=S1(=O)N=C(Nc2ccccc2)c2ccccc21`: in series [1], the concentration in solution (solubility) came to 7 µM (≈ 1.81 µg/mL). In addition, the pH-dependent lipophilicity (logD) in series [2] was 2. Moreover, the inhibition at 11 µM against hERG (KCNH2) turned out to be 11.1%. Moreover, in series [3], the fraction unbound was 0.16. In series [4] (liver microsomes), the microsomal CLint was 85.4 µL/min/mg.

Turning to `O=C1N=S(=O)(NCc2ccccc2)c2ccccc21` (stereo not drawn), the Papp A→B in series [5] amounted to 707 nm/s. The solubility in series [1] was determined as 869 µM (≈ 237 µg/mL). Also, in series [2], the logD came out at 0.8. Moreover, the inhibition at 11 µM against hERG (KCNH2) was -1.9%. The molecule also yielded a fraction unbound in series [3] of 0.12. The same molecule yielded a microsomal CLint in series [4] (liver microsomes) of less than 3 µL/min/mg. For the same molecule, the pKa in series [6] came out at 6.5.

Regarding `C[C@H](N[S@]1(=O)=NC(=O)c2ccccc21)c1ccccc1`, in series [5], the apical-to-basolateral permeability (Papp A→B) stood at 630 nm/s. In addition, the concentration in solution in series [1] (solubility) was 13 µM (≈ 3.72 µg/mL). In series [2], this molecule had a logD of 1.4. In series [3], this molecule displayed a fraction unbound of 0.014. In series [4] (liver microsomes), this molecule registered a microsomal CLint of less than 3 µL/min/mg. In addition, the pKa in series [6] is 6.62.

For `N=S1(=O)c2ccccc2C(=O)N1c1ccccc1` (stereo not drawn), the concentration in solution in series [1] (solubility) came to 578 µM (≈ 149 µg/mL). In addition, in series [2], the logD amounted to 1.3. In addition, on hERG (KCNH2), the inhibition at 11 µM was -25.6%. This molecule returned a microsomal CLint in series [4] (liver microsomes) of 93.5 µL/min/mg. Also, the pKa in series [6] worked out at 8.3.

In the case of `O=C1c2ccccc2S(=O)(=O)N1Cc1ccccc1`, the solubility in series [1] was less than 0.01 µM. Also, the logD in series [2] is -1.8.

For the molecule `C[C@H](NS1(=O)=NC(=O)c2ccccc21)c1ccccc1` (single isomer, unassigned), the Papp A→B in series [5] amounted to 470 nm/s. Moreover, the concentration in solution in series [1] (solubility) came to 107 µM (≈ 30.6 µg/mL). Moreover, the logD in series [2] is 0.8. The same molecule displayed a fraction unbound in series [3] of 0.089. This molecule came in with a microsomal CLint in series [4] (liver microsomes) of less than 3 µL/min/mg. This molecule also registered a pKa in series [6] of 6.55.

Turning to `O=C1NS(=O)(=O)c2ccccc21` [SACCHARIN], the Papp A→B in series [5] was less than 7.5 nm/s. This molecule registered a solubility in series [1] of 838 µM (≈ 154 µg/mL). In series [7], the pKa is 3.1. Moreover, in series [2], the logD was less than -0.1. The molecule further returned a fraction unbound in series [3] of 0.37. This molecule yielded a microsomal CLint in series [4] (microsomes) of less than 3 µL/min/mg.

The values are drawn from ChEMBL document CHEMBL4033761 (ACS Med Chem Lett, 2017).
